Measured values reported in paper PMC3411833, “The Two PPX-GppA Homologues from Mycobacterium tuberculosis Have Distinct Biochemical Activities” (PLoS ONE, 2012).

How the values were obtained:
MTB-PPX1 (Rv0496) [1] = biological target: T1, MTB-PPX1 (Rv0496) (Mycobacterium tuberculosis, UniProt P9WHV5)
Rv1026 = biological target: T2, Rv1026 (Mycobacterium tuberculosis, UniProt P96374)
T2 construct: gene ppx2

MTB-PPX1 (Rv0496) [2] = biological target: T1, MTB-PPX1 (Rv0496); remark: listed apart in the source

T1 sequence (P9WHV5 whole entry): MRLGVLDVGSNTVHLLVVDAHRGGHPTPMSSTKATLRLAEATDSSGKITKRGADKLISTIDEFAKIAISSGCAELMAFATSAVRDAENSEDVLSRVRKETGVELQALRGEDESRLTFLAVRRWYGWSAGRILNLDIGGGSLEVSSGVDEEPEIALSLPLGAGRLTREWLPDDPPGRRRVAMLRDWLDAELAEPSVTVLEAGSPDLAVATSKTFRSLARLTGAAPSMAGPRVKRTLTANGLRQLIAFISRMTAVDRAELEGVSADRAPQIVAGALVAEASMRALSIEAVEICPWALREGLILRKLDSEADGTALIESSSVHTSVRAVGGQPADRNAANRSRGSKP
T2 sequence (P96374 whole entry): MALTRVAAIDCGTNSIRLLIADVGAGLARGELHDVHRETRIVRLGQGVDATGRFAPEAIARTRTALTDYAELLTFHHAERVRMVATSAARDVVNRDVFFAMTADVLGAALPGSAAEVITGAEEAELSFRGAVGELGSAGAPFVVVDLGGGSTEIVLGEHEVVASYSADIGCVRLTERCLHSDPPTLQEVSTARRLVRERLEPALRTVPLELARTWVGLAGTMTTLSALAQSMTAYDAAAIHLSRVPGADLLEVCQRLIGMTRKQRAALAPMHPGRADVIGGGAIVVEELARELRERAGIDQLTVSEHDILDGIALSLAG

Row | Compound | Exopolyphosphatase activities / +1 mM ppGpp / (% decrease) / ATPase activities (MTB-PPX1 (Rv0496) [1]) | Exopolyphosphatase activities / +1 mM pppGpp / (% decrease) / ATPase activities (Rv1026) | Exopolyphosphatase activities / +1 mM pppGpp / (% decrease) / ATPase activities (MTB-PPX1 (Rv0496) [2])
1 | Nc1nc2c(ncn2[C@@H]2O[C@H](COP(=O)(O)OP(=O)(O)O)[C@@H](OP(=O)(O)OP(=O)(O)O)[C@H]2O)c(=O)[nH]1 [ppGpp, guanosine 3′,5′-bisdiphosphate] | 5.9±0.7% |  | 
2 | Nc1nc2c(ncn2[C@@H]2O[C@H](COP(=O)(O)OP(=O)(O)OP(=O)(O)O)[C@@H](OP(=O)(O)OP(=O)(O)O)[C@H]2O)c(=O)[nH]1 [pppGpp, guanosine 5′-triphosphate, 3′-diphosphate] |  | 32.3±9.4% | 37.9±6.7%
